We go through 4 compounds from publication PMC6892925, “Development of Novel Silyl Cyanocinnamic Acid Derivatives as Metabolic Plasticity Inhibitors for Cancer Treatment” (Scientific Reports, 2019).

The structures appear in SMILES notation. “Also recorded” adds a separate entry of the source. Read-outs that look alike come from different tables or passages of the source. Where only a bound is given, the exact number is not on record here.

The test system of one test is WiDr cells. The test can be described thus: Western blot analysis of cell damage and death markers. As to conditions: WiDr cultures treated with 2a plus NAC. Format: cell-based, human. On the procedure: Owing to the enhanced antiproliferative effects induced by test compound 2a when compared to CHC, western blot analysis of cell damage and death markers was performed. The master transcription factor p53 regulates the expression of numerous genes involved in cancer progression and is responsible for balancing proliferation and apoptosis. In this regard, we evaluated the effects of compound treatment on p53 expression. Literature reports indicate that MDA-MB-231 and WiDr cells express distinct homozygous mutant forms of p53 that promote an aggressive malignant phenotype with resistance to apoptosis[36],[37]. […] Further, PARP1 is involved in the DNA repair pathway through sensing DNA-strand breaks and recruiting repair enzymes. Importantly, PARP1 is a target of caspase cleavage under apoptotic conditions, and the appearance of the PARP1 cleavage product is a widely used indicator of cellular apoptosis. […] Additionally, DNA damage may be a downstream effect of apoptotic nuclease activity or an increase in reactive oxygen species (ROS) from damaged mitochondria; as illustrated in microscopy and seahorse experiments. Histone 2AX phosphorylation (γH2AX) resulting from DNA single- and double-strand breaks is a widely employed marker for DNA damage. In this regard, we investigated the effect of 2a on DNA damage marker γH2AX (phosphorylated Ser139, histone H2AX) with a phospho-specific antibody. […] Due to the potential of ROS leading to DNA damage and H2AX phosphorylation, we investigated the ability of antioxidant N-acetyl cysteine (NAC) to inhibit DNA damage of compound 2a as evidenced by H2AX phosphorylation in the highly oxidative cell line WiDr (Fig. 4A).
50,000 WiDr or MDA-MB-231 cells were seeded in 100 mm dishes and were incubated for 48 hours. Cells were then treated with test compounds for 24 hours, washed twice with 1X PBS, solubilized in 200 μL SDS boiling buffer (5% w/v SDS, 10% v/v glycerol, and 60 mM Tris pH 6.8), and sonicated. The resulting cell lysate was then assayed for protein using the Pierce BCA protocol. A volume of test sample containing 10 μg protein was loaded on SDS PAGE gel for electrophoresis according to manufacturer’s instructions. Proteins were transferred from the gel to nitrocellulose membrane according to the manufacturer’s instructions. Membranes were blocked for 1 hr at 35 °C using 10% (w/v) non-fat milk in PBST and were exposed to primary antibody. PARP1 (rabbit polyclonal IgG, Origene, TA321555), p53 (rabbit polyclonal IgG, Santa Cruz, sc50329), and γ-H2AX (Upstate 05-636, 1:2500) were detected and visualized using HRP chemiluminescence. For relative quantitation, β-actin (mouse monoclonal IgG C4, Millipore, MAB1501, 1:10,000) and GAPDH (mouse monoclonal IgG, Santa Cruz, sc47724, 1:100) were detected and measured as a control protein.
For orientation: Immunoblotting shows a protein as a band on a membrane.

The next test deals with T1, MCT1 (Rattus norvegicus, UniProt P53987).
T1 construct: using an L-[^14C]-lactate study on the MCT1 expressing RBE4 cell line; endogenous in cells; host or cells: RBE4 (rat brain endothelial 4) cells, a gift from F. Roux
T1 sequence (P53987 1-494): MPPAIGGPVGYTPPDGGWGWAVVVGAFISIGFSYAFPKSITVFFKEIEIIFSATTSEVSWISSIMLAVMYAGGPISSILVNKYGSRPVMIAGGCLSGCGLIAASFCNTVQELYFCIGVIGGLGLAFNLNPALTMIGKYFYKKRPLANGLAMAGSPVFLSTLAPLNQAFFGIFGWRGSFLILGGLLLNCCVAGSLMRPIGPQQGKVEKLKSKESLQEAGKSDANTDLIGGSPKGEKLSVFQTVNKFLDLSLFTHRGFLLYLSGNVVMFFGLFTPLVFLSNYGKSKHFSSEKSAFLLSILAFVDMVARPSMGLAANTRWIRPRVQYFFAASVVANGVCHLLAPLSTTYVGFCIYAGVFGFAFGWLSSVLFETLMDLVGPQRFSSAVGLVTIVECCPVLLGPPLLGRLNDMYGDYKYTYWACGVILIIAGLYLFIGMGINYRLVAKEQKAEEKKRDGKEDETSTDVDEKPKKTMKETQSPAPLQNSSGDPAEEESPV
The test can be described thus: MCT1 inhibition assay via L-[14C]-lactate uptake in RBE4 cells. Format: cell-based. As to conditions: for MCT1 inhibition properties: at the concentrations tested, RBE4 cells.

The test system of the next test is WiDr cell line. Kind of test: MTT cell proliferation inhibition assay. As to conditions: Homo sapiens, read-out: MTT IC50.
In the next test the test system is MDA-MB-231 cell line. Kind of test: MTT cell proliferation inhibition assay. The following applies: Homo sapiens, MDA-MB-231, read-out: MTT IC50.
For a further test, the system named is 4T1 cell line. The test can be described thus: MTT cell proliferation inhibition assay. The following applies: Mus musculus, 4T1, read-out: MTT IC50.
For the next test, the system named is MCF7 cell line. Kind of test: MTT cell proliferation inhibition assay. The following applies: Homo sapiens, MCF7, read-out: MTT IC50.
The subject of test [1] is MCF7, 4T1, WiDr, and MDA-MB-231 cell lines. The test can be described thus: MTT cell proliferation inhibition, all cell lines tested. Format: cell-based. The following applies: for cell proliferation inhibition: concentrations up to 500 µM, solubility limit above (0.1% DMSO in growth media).
Experimental: (§1) Cell proliferation inhibition was evaluated using 3-(4,5-dimethylthiazol-2-yl)-2,5-diphenyl tetrazolium bromide (MTT) assay as reported previously[19].
The mark [2] stands for this setting: L-[14C]-lactate uptake, MCT1 expressing RBE4 cell line, average ± SEM of three separate experiments, read-out: MCT1 IC50.

Experimental for 4T1 cell line: (§2) Human triple-negative breast cancer MDA-MB-231 cells (ATCC) were grown in DMEM supplemented with 10% FBS (Atlanta Biologicals) and penicillin-streptomycin (50U/ml, 50 µg/ml, Invitrogen). Human colorectal adenocarcinoma WiDr cells (ATCC) were cultured in MEM medium supplemented with 10% FBS and penicillin-streptomycin. […] Murine metastatic breast cancer 4T1 cells were grown in RPMI-1640 supplemented with 10% FBS and penicillin-streptomycin. Human estrogen receptor positive breast cancer MCF7 cells (Masonic Cancer Center, University of Minnesota) were grown in MEM supplemented with 6% FBS, EGF (0.01 µg/ml), NEAA, HDC (1 µg/ml), insulin (10 µg/ml), HEPES (12 mM) and sodium pyruvate (1 mM).
as §1
Experimental for MCF7 cell line: as §2, §1
Experimental for WiDr cell line: as §2, §1

Regarding `CC(=O)N[C@@H](CS)C(=O)O` [NAC, N-acetyl cysteine, reference compound], in the test on WiDr cells, the “effect on 2a-induced H2AX activation” value is on record as “significantly reduced” and the “effect on 2a-induced PARP1 cleavage” value is “did not reverse PARP1 cleavage”.
Usually IC50 stands for the point on the concentration scale where inhibition reaches its midpoint. On to `N#C/C(=C\c1ccc(OCCO)cc1)C(=O)O` [2c], for which the IC50 was > 5 µM on MCT1 (setting [2]); > 500 µM with WiDr cell line; > 500 µM with MDA-MB-231 cell line; > 500 µM in the test on 4T1 cell line; > 500 µM in the test with MCF7 cell line. Further, the MCT1 inhibition properties result at MCT1 is listed as “did not exhibit MCT1 inhibition properties”. Further, the cell proliferation inhibition entry in test [1] is reported as “did not show significant cell proliferation inhibition; also recorded: did not exhibit any cell proliferation inhibition properties”.
Take `N#CC(=Cc1ccc(O)cc1)C(=O)O` [CHC 1, α-cyano-4-hydroxycinnamic acid, reference compound]: the IC50 at MCT1 was > 150 µM; in the test on WiDr cell line, 1100 ± 96 µM; in the test on MDA-MB-231 cell line it was 5300 ± 130 µM; in the test on 4T1 cell line, 3600 ± 300 µM; in the test with MCF7 cell line it was 4000 ± 130 µM; in test [1] (read-out: MTT IC50 values, span over all the cell lines tested) it was 1100 to 5300 µM. Besides, the “concentration at which MCT1 function is inhibited” value on MCT1 (lactate uptake assay, discussion statement) was ≥ 150 µM.
For `N#C/C(=C\c1ccc(OCCBr)cc1)C(=O)O` [2d], the IC50 is > 5 µM at MCT1 (setting [2]); > 500 µM in the test on WiDr cell line; > 500 µM in the test with MDA-MB-231 cell line; > 500 µM in the test on 4T1 cell line; > 500 µM in the test on MCF7 cell line. The MCT1 inhibition properties result at MCT1 is reported as “did not exhibit MCT1 inhibition properties”. Also, the cell proliferation inhibition entry in test [1] is listed as “did not show significant cell proliferation inhibition; also recorded: did not exhibit any cell proliferation inhibition properties”.
